From patent US20250304596A1, “PYRAZINE DERIVATIVES AND USES THEREOF” (FOGHORN THERAPEUTICS INC., priority 2022, published 2025) come the findings set out here.

One assay concerns the target T1, HiBit-BRM fusion protein (Homo sapiens, UniProt P51531).
T1 construct: expressed in transfected cells
The assay is described as follows: HiBiT-BRM cell-based degradation assay (Nano-Glo HiBiT Lytic Detection, 24 h). The conditions noted are these: stable HeLa cell line expressing HiBiT-BRM; for DC50: read-out: BRM HiBit Degradation IC50. The method in brief: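 A stable HeLa line expressing HiBiT-BRM was treated for 24 h with compound in a 10-point, 3-fold series (30 μM final top dose). Remaining HiBiT-BRM was read by lytic LgBiT complementation luminescence. % degradation was normalised to DMSO (high control) and 2 μM reference BRM/BRG1 degrader (low control).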
In general terms: HiBiT is a short tag that completes a luciferase, so light tracks the accessible tagged protein.

The target of assay [1] is T2, HiBit-BRG1 fusion protein (Homo sapiens, UniProt P51532).
T2 construct: expressed in transfected cells
The assay is described as follows: HiBiT-BRG1 cell-based degradation assay (Nano-Glo HiBiT Lytic Detection, 24 h). The note with it: stable HeLa cell line expressing HiBit-BRG1 and LgBit; for Dmax: read-out: BRG1 HiBit Degradation Maximum (%); for DC50: read-out: BRMG1 HiBit Degradation IC50. The method in brief: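 HeLa cells stably expressing HiBit-BRG1 and LgBit, treated 24 h with 3-fold dilutions (10 points, duplicate, 30 μM final top dose). Luminescence read after Nano-Glo HiBiT lytic reagent; % degradation scaled between DMSO (high) and 2 μM reference BRM/BRG1 degrader (low control).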

T1 sequence (P51531 whole entry, the tested form may be a part): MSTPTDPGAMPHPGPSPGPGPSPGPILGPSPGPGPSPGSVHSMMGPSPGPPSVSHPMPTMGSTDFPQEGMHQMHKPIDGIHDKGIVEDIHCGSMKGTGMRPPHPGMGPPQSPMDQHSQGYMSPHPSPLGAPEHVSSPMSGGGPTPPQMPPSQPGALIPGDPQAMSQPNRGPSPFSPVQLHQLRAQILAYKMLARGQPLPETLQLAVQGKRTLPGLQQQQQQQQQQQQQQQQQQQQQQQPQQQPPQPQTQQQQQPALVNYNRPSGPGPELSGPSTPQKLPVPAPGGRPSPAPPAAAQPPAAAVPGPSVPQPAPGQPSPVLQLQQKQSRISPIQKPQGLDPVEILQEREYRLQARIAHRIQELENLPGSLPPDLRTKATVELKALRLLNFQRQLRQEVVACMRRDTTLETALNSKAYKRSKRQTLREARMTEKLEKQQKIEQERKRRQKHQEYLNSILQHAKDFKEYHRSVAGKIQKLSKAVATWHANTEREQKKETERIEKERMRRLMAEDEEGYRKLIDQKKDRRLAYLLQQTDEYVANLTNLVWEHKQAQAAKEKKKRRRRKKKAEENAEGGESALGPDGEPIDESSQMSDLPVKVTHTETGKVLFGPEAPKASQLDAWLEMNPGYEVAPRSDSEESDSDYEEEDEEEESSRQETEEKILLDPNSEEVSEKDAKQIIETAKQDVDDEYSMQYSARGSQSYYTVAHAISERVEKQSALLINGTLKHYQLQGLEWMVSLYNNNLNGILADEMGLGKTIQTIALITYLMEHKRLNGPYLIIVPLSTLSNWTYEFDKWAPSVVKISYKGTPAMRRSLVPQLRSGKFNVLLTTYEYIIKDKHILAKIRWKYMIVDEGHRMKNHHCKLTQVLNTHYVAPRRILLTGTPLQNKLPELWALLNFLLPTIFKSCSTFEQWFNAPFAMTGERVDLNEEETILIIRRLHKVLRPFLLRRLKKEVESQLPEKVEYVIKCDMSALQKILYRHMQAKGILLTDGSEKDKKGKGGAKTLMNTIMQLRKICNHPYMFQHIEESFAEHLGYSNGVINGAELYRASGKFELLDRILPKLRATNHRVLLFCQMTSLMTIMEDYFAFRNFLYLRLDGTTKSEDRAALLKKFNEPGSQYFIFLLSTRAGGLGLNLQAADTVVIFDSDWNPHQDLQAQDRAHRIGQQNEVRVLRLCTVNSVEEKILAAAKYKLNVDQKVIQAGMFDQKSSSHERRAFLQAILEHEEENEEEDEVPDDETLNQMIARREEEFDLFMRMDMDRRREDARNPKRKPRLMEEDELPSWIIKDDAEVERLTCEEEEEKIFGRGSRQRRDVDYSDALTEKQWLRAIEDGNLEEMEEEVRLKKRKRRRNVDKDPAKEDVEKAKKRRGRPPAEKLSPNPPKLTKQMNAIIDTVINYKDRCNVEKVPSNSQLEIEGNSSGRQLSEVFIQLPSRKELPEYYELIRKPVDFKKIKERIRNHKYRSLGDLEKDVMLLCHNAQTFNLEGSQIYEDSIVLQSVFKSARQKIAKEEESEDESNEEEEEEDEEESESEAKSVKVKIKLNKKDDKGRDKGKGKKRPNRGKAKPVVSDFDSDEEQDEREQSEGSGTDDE
T2 sequence (P51532 whole entry, the tested form may be a part): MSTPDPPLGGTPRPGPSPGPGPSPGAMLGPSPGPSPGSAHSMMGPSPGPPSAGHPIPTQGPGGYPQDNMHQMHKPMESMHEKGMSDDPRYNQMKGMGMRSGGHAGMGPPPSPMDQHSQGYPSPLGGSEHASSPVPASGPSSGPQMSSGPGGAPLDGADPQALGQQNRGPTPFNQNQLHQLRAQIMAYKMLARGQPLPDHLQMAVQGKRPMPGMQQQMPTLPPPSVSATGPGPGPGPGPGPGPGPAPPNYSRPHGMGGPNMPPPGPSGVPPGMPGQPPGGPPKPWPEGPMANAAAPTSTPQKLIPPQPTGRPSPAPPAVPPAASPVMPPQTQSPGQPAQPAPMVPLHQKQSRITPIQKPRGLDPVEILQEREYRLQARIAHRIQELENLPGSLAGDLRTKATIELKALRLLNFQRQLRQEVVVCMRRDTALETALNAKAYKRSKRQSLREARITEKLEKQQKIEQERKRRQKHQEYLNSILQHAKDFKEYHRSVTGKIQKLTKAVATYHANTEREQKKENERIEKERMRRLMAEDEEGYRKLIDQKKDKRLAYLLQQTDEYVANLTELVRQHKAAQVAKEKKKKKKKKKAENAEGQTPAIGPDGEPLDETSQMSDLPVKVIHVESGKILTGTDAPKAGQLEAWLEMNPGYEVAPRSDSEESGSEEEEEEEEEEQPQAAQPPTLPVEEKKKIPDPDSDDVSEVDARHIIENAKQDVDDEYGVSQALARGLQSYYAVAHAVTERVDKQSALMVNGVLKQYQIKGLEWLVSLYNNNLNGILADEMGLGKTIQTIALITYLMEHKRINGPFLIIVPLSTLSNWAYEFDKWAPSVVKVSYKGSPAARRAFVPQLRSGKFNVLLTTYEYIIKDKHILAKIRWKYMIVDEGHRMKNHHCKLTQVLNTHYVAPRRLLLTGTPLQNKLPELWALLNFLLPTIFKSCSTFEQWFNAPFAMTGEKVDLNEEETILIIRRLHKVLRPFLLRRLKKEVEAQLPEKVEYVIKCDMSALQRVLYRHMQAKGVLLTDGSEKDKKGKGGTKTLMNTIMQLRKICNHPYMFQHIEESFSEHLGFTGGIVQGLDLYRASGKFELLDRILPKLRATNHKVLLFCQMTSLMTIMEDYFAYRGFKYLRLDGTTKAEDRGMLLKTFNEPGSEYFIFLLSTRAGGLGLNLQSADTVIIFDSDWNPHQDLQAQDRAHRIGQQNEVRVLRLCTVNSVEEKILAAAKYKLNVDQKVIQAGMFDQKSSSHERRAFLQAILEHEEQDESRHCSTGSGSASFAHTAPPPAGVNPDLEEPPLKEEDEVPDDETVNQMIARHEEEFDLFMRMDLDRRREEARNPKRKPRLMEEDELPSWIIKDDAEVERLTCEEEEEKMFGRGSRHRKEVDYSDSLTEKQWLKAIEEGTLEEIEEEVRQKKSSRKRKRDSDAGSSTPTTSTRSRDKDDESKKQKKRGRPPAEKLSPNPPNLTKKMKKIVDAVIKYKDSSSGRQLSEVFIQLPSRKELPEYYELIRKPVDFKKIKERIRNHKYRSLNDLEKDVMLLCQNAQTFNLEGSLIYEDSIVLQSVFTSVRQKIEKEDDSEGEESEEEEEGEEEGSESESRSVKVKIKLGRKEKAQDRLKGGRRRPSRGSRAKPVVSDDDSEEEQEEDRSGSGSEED

For `Cc1ncsc1-c1ccc([C@H](C)NC(=O)[C@@H]2C[C@@H](O)CN2C(=O)[C@@H](c2cc(N3CC4(CC(c5cc6cc(-c7ccccc7O)nnc6s5)C4)C3)no2)C(C)C)cc1` (single isomer, unassigned) [Compound 1], at HiBit-BRM fusion protein, the “BRM HiBit Degradation Maximum (%)” value is on record as “A (“A” indicates maximum degradation ≥75%)” and the DC50 is under 10 nM. In assay [1], the Dmax was over 75% and the DC50 was over 10 nM.
Turning to `Cc1ncsc1-c1ccc([C@H](C)NC(=O)[C@@H]2C[C@@H](O)CN2C(=O)C(c2cc([C@H]3CC[C@H](c4cnc(N5CCC(c6sc7nnc(-c8ccccc8O)cc7c6C)CC5)nc4)CC3)no2)C(C)C)cc1` (stereo partly drawn) [Compound 64, (2S,4R)-4-hydroxy-1-((R)-2-(3-((1s,4S)-4-(2-(4-(3-(2-hydroxyphenyl)-5-methylthieno[2,3-c]pyridazin-6-yl)piperidin-1-yl)pyrimidin-5-yl)cyclohexyl)isoxazol-5-yl)-3-methylbutanoyl)-N—((S)-1-(4-(4-methylthiazol-5-yl)phenyl)ethyl)pyrrolidine-2-carboxamide], on HiBit-BRM fusion protein, the “BRM HiBit Degradation Maximum (%)” value is recorded as “A (“A” indicates maximum degradation ≥75%)” and the DC50 is under 10 nM. In addition, in assay [1], the Dmax was over 75% and the DC50 was over 10 nM.
For `Cc1ncsc1-c1ccc([C@H](C)NC(=O)[C@@H]2C[C@@H](O)CN2C(=O)[C@@H](c2cc(-c3cnc(N4CCC(O)(c5sc6nnc(-c7ccccc7O)cc6c5C)CC4)nc3)no2)C(C)C)cc1` [Compound 52, (2S,4R)-4-hydroxy-1-((R)-2-(3-(2-(4-hydroxy-4-(3-(2-hydroxyphenyl)-5-methylthieno[2,3-c]pyridazin-6-yl)piperidin-1-yl)pyrimidin-5-yl)isoxazol-5-yl)-3-methylbutanoyl)-N-((S)-1-(4-(4-methylthiazol-5-yl)phenyl)ethyl)pyrrolidine-2-carboxamide] the same measures were “B (“B” indicates maximum degradation ≥50%)”, over 10 nM, under 50% and over 1000 nM.
As for `COc1nc(N2CCC(c3sc4nnc(-c5ccccc5O)cc4c3C)CC2)ccc1-c1cc([C@H](C(=O)N2C[C@H](O)C[C@H]2C(=O)N[C@@H](C)c2ccc(-c3scnc3C)cc2)C(C)C)on1` [Compound 20, (2S,4R)-4-hydroxy-1-((R)-2-(3-(6-(4-(3-(2-hydroxyphenyl)-5-methylthieno[2,3-c]pyridazin-6-yl)piperidin-1-yl)-2-methoxypyridin-3-yl)isoxazol-5-yl)-3-methylbutanoyl)-N-((S)-1-(4-(4-methylthiazol-5-yl)phenyl)ethyl)pyrrolidine-2-carboxamide], on HiBit-BRM fusion protein, the “BRM HiBit Degradation Maximum (%)” value is “A (“A” indicates maximum degradation ≥75%)” and the DC50 was over 10 nM. In addition, in assay [1], the Dmax is under 50% and the DC50 was over 1000 nM.
As for `Cc1ncsc1-c1ccc([C@H](C)NC(=O)[C@@H]2C[C@@H](O)CN2C(=O)[C@@H](c2cc(-c3ccnc(N4CC[C@H](c5cc6nnc(-c7ccccc7O)cc6s5)C4)n3)no2)C(C)C)cc1` [Compound 86, (2S,4R)-4-hydroxy-1-((R)-2-(3-(2-((S)-3-(3-(2-hydroxyphenyl)thieno[3,2-c]pyridazin-6-yl)pyrrolidin-1-yl)pyrimidin-4-yl)isoxazol-5-yl)-3-methylbutanoyl)-N-((S)-1-(4-(4-methylthiazol-5-yl)phenyl)ethyl)pyrrolidine-2-carboxamide], at HiBit-BRM fusion protein, the “BRM HiBit Degradation Maximum (%)” value is on record as “A (“A” indicates maximum degradation ≥75%)” and the DC50 is over 100 nM. In assay [1], the Dmax is under 50%.
As to `Cc1ncsc1-c1ccc([C@H](C)NC(=O)[C@@H]2C[C@@H](O)CN2C(=O)[C@@H](c2cc(N3CCC4(CC[C@@H](c5sc6nnc(-c7ccccc7O)cc6c5C)C4)CC3)no2)C(C)C)cc1` [Compound 77, (2S,4R)-4-hydroxy-1-((R)-2-(3-((R)-2-(3-(2-hydroxyphenyl)-5-methylthieno[2,3-c]pyridazin-6-yl)-8-azaspiro[4.5]decan-8-yl)isoxazol-5-yl)-3-methylbutanoyl)-N-((S)-1-(4-(4-methylthiazol-5-yl)phenyl)ethyl)pyrrolidine-2-carboxamide], at HiBit-BRM fusion protein, the “BRM HiBit Degradation Maximum (%)” value is on record as “A (“A” indicates maximum degradation ≥75%)” and the DC50 is under 10 nM. Also, in assay [1], the Dmax is over 50% and the DC50 is over 100 nM.
The matching figures for `Cc1ncsc1-c1ccc([C@H](C)NC(=O)[C@@H]2C[C@@H](O)CN2C(=O)[C@@H](c2cc(-c3ccnc(N4CC[C@H](c5sc6nnc(-c7ccccc7O)cc6c5C)C4)n3)no2)C(C)C)cc1` [Compound 8, (2S,4R)-4-hydroxy-1-((R)-2-(3-(2-((S)-3-(3-(2-hydroxyphenyl)-5-methylthieno[2,3-c]pyridazin-6-yl)pyrrolidin-1-yl)pyrimidin-4-yl)isoxazol-5-yl)-3-methylbutanoyl)-N-((S)-1-(4-(4-methylthiazol-5-yl)phenyl)ethyl)pyrrolidine-2-carboxamide]: “A (“A” indicates maximum degradation ≥75%)”, over 10 nM, under 50% and over 1000 nM.
For `Cc1ncsc1-c1ccc([C@H](C)NC(=O)[C@@H]2C[C@@H](O)CN2C(=O)C(c2cc(Oc3nccc(N4CCC(c5sc6nnc(-c7ccccc7O)cc6c5C)CC4)n3)no2)C(C)C)cc1` (single isomer, unassigned) [Compound 61, (2S,4R)-4-hydroxy-1-[(2R*)-2-{3-[(4-{4-[3-(2-hydroxyphenyl)-5-methylthieno[2,3-c]pyridazin-6-yl]piperidin-1-yl}pyrimidin-2-yl)oxy]-1,2-oxazol-5-yl}-3-methylbutanoyl]-N-[(1S)-1-[4-(4-methyl-1,3-thiazol-5-yl)phenyl]ethyl]pyrrolidine-2-carboxamide] the same measures were “C (“C” indicates maximum degradation <50%)”, over 1000 nM, under 50% and over 1000 nM.
As for `Cc1cc(-c2cc([C@H](C(=O)N3C[C@H](O)C[C@H]3C(=O)N[C@@H](C)c3ccc(-c4scnc4C)cc3)C(C)C)on2)cnc1N1CC[C@@H](c2sc3nnc(-c4ccccc4O)cc3c2C)C1` [Compound 101, (2S,4R)-4-hydroxy-1-((R)-2-(3-(6-((R)-3-(3-(2-hydroxyphenyl)-5-methylthieno[2,3-c]pyridazin-6-yl)pyrrolidin-1-yl)-5-methylpyridin-3-yl)isoxazol-5-yl)-3-methylbutanoyl)-N-((S)-1-(4-(4-methylthiazol-5-yl)phenyl)ethyl)pyrrolidine-2-carboxamide], at HiBit-BRM fusion protein, the “BRM HiBit Degradation Maximum (%)” value is “A (“A” indicates maximum degradation ≥75%)” and the DC50 is over 10 nM. Besides, in assay [1], the Dmax is under 50%.
For the compound `Cc1ncsc1-c1ccc([C@H](C)NC(=O)[C@@H]2C[C@@H](O)CN2C(=O)[C@@H](c2cc(-c3cnc(N4C[C@H]5C[C@@H]4C[C@H]5c4cc5cc(-c6ccccc6O)nnc5s4)nc3)no2)C(C)C)cc1` [Compound 13, (2S,4R)-4-hydroxy-1-((R)-2-(3-(2-((1R,4S,5R)-5-(3-(2-hydroxyphenyl)thieno[2,3-c]pyridazin-6-yl)-2-azabicyclo[2.2.1]heptan-2-yl)pyrimidin-5-yl)isoxazol-5-yl)-3-methylbutanoyl)-N-((S)-1-(4-(4-methylthiazol-5-yl)phenyl)ethyl)pyrrolidine-2-carboxamide], on HiBit-BRM fusion protein, the “BRM HiBit Degradation Maximum (%)” value is reported as “C (“C” indicates maximum degradation <50%)” and the DC50 is over 1000 nM. Also, in assay [1], the Dmax was under 50% and the DC50 was over 1000 nM.
